Laboratory results reported in patent US9707126B2, “Systems and methods for corneal cross-linking with pulsed light” (Avedro, Inc., priority 2009, dated 2017).
Entries after “also recorded” stand apart in the source; their conditions may differ.

How the values were obtained:
[1] = Absorbance of Riboflavin before and after UVA irradiation (FIG. 3); format: physicochemical; conditions: 0.2 mm light path
Protocol: Referring now to FIG. 3, a graph illustrating absorbance for 0.2 mm light path of an initial sample of Riboflavin versus absorbance for 0.2 mm light path of reduced Riboflavin RfH2 after being irradiated for 3 minutes at an irradiance of 30 mW/cm^2. At a wavelength of 445 nm, the absorbance of the initial sample is about 0.543, while the absorbance of the irradiated sample is about 0.340.

[2] = system: porcine corneal flaps; assay: Fluorescence of papain-digested corneal flaps treated with RFH2 solutions (Example 1)
Protocol: RFH2 was prepared by irradiation of Riboflavin solutions (with and without EDTA, 1% EDTA, 0.1% Riboflavin) and saturated with argon (to displace oxygen) in a shallow sealed quartz cuvette. Then, in the absence of additional UV light, porcine corneal flaps were immediately placed in those solutions. After 1-2 min this procedure was repeated with a fresh solution containing RFH2 several times. Corneal flaps then were washed with distilled water, digested with papain buffer, and their fluorescence was measured.

[3] = system: porcine cornea; assay: Fluorescence of digested 200 μm corneal flaps, continuous wave versus pulsed illumination (Example 4); conditions: for fluorescence at 455 nm: 0.1% Riboflavin, 200 μm flap
Protocol: In another corroborating experiment porcine whole globes (SiouxPreme Packing Co., Sioux City, Iowa; shipped in saline solution packed in ice) were warmed to room temperature (25 C). The corneas were then de-epithelialized with a dulled scalpel blade and 0.1, Riboflavin solution in 0.9% saline was applied to the top of each cornea during 20 minutes before cross-linking in an incubator. Corneas were pan-corneally irradiated with a top hat beam (3% root mean square) for a determined amount of time with 365-nm light source (UV LED NCSU033B[T]; Nichia Co., Tokushima, Japan) at the chosen irradiance of 30 mW/cm^2 with either continuous wave illumination or pulsed illumination 3 seconds on/3 Seconds off. Corneal flaps (200 μm thick) were excised from the eyes with aid of Intralase femtosecond laser (Abbott Medical Optics, Santa Ana, Calif.). The average thickness of the corneal flaps was calculated as a difference between the measurements before and after the excision from the eyes with an ultrasonic Pachymeter (DGH Technology, Exton, Pa.).
The flaps were washed with distilled water until Riboflavin in the washing waters was not detectable by absorbance measurement at 455 nm (Thermo Scientific Evolution 300/600 UV-Vis Spectrophotometer, Thermo Fisher Scientific, Waltham, Mass.). […] Papain digests were centrifuged for 30 seconds at 2200×G (Mini centrifuge 05-090-100, Fisher Scientific), diluted 3 times with 1×PBS solution and fluorescence of the solutions was measured with excitation of λex=360 nm in a QM-40 Spectrofluorometer (Photon Technology Int., London, Ontario, Canada).
The fluorescence of the papain buffer was taken into account by measuring fluorescence in the absence of tissue and subtracting this value from the fluorescence of the samples. The results seen below corroborate that the amount of fluorescence seen which is directly related to the amount of cross-linking is greater for the pulsed vs. continuous wave illumination in nearly the same proportion as the biomechanical measurements taken of the same flaps.

[4] = system: porcine cornea; assay: Collagen linked fluorescence in cross-linked corneal flaps at depths of 100 μm and 200 μm (Example 2)
Protocol: Porcine whole globes (SiouxPreme Packing Co., Sioux City, Iowa; shipped in saline solution packed in ice) were warmed to room temperature (25° C.). The corneas were then de-epithelialized with a dulled scalpel blade and 0.1, 0.25, or 0.5% riboflavin solution in 0.9% saline was applied to the top of each cornea during 20 minutes before cross-linking Corneas were pan-corneally irradiated with a top hat beam (3% root mean square) for a determined amount of time with 365-nm light source (UV LED NCSU033B[T]; Nichia Co., Tokushima, Japan) at the chosen irradiance (3 or 30 mW/cm^2) which was measured with a power sensor (model PD-300-UV; Ophir, Inc., Jerusalem, Israel) at the corneal surface.
Corneal flaps (each 100 μm thick, one after another) were excised from the eyes with aid of Intralase femtosecond laser (Abbott Medical Optics, Santa Ana, Calif.). The average thickness of the corneal flaps was calculated as a difference between the measurements before and after the excision from the eyes with an ultrasonic Pachymeter (DGH Technology, Exton, Pa.). The flaps were washed with distilled water until Riboflavin in the washing waters was not detectable by absorbance measurement at 455 nm (Thermo Scientific Evolution 300/600 UV-Vis Spectrophotometer, Thermo Fisher Scientific, Waltham, Mass.). […]

[5] = system: porcine cornea; assay: Force versus displacement of cross-linked corneal flaps, biaxial materials tester (Example 3)
Protocol: Upon arrival, porcine eyes have excess muscle tissue that was removed and placed in saline in the incubator (set to 37° C.) for 30 minutes. […] Eyes were removed from solution and physiological IOP was applied. Eyes were then placed under a UVA source and shutter system and irradiated according to the indicated protocol as shown in FIGS. 5A-5C. Riboflavin drops were applied every 1.5 minutes during UVA application. After being irradiated, the corneal thickness was measured with a pachymeter. The sample was then placed under the femto second laser and a ˜200 μm flap was cut. The flap was positioned in a biaxial materials tester (CS-BIO TESTER 5000, CellScale, Waterloo, ON Canada) and stretched until failure. The sample was then rinsed with distilled water and frozen for future papain digestion and fluorescence analysis.

[6] = system: porcine cornea; assay: Cross-linking measured by fluorescence of digested corneal flaps at 450 nm (Example 5); conditions: 0.1% Riboflavin, humid oxygenated environment with pulsed UV light 30 mW/cm^2, 1.5 seconds on/3 seconds off, 9 minutes
Protocol: Pig eyes from an abattoir (SiouxPreme, Sioux City, Iowa) were rinsed in saline. Eyes were cleaned and the epithelium was removed. Eyes were placed on a stand in the middle of a large beaker filled part way with water with a tube bubbling compressed oxygen into the water. The oxygen was turned on at certain times during the experiment to create a humid oxygenated environment for the eye. Eyes were soaked for 20 minutes with 0.1% Riboflavin, dH2O solution in an incubator set at 37° C. by using a rubber ring to hold the solution on top. Corneas were pan-corneally irradiated with a top hat beam (3% root mean square) for a determined amount of time and irradiance (3 minutes CW at 30 mW/cm^2 with one drop of solution added every 30 seconds, or 30 minutes CW at 3 mW/cm^2 with one drop of solution added every minute, or 9 minutes for pulsed light—1.5 seconds on/3 seconds off—using a shutter system (Lambda SC Smart Shutter, Sutter Instrument, Novato, Calif.) at 30 mW/cm^2 with one drop of solution added every minute) with a 365-nm light source (UV LED NCSU033B[T]; Nichia Co., Tokushima, Japan). The irradiance was measured with a power sensor (model PD-300-UV; Ophir, Inc., Jerusalem, Israel) at the corneal surface. […]
FIG. 7A illustrates a graph of the amount of cross-linking measured by fluorescence of the digested corneal flaps at 450 nm. […]

Row | absorbance at 445 nm ([1]; after irradiation for 3 minutes at 30 mW/cm^2) | biomechanical stiffness (FIG. 5C) ([5]; 0.1% Riboflavin, 30 mW/cm^2 pulsed 3 seconds on/4.5 seconds off and 3 seconds on/3 seconds off) | biomechanical stiffness (FIG. 7B) ([5]; 3 mW/cm^2 and 30 mW/cm^2 continuous wave illumination, versus pulsed with oxygen) | biomechanical stiffness (FIG. 5C) ([5]; 30 mW/cm^2 pulsed, 3 seconds on, 1.5, 0.75 and 0.25 seconds off (samples 5, 6, 7)) | biomechanical stiffness (FIG. 5C) ([5]; sample 1: 0.1% Riboflavin, 3 mW/cm^2 continuous wave) | biomechanical stiffness (FIG. 5A) ([5]; sample 2: 0.25% Riboflavin, 3 mW/cm^2 continuous wave vs. sample 3 at 30 mW/cm^2, 5.4 J/cm^2) | biomechanical stiffness (FIG. 7B) ([5]; sample 3: 30 mW/cm^2 pulsed light with oxygen, 3 seconds on/3 seconds off) | biomechanical stiffness (FIG. 5A) ([5]; sample 8: 0.1% Riboflavin, 30 mW/cm^2 pulsed 3 seconds on/3 seconds off) | absorbance at 445 nm ([1]; initial sample) | Structure (SMILES) | fluorescence of corneal samples ([2]; Riboflavin solution irradiated with a reducing agent, EDTA (1% EDTA, 0.1% Riboflavin)) | fluorescence of corneal samples versus samples washed with unexposed Riboflavin ([2]; preliminary UVA-exposed Riboflavin solutions, no further UV light) | fluorescence at 455 nm ([3]; 30 mW/cm^2 continuous illumination) | fluorescence at 455 nm ([3]; 30 mW/cm^2 pulsed light 3 seconds on/3 seconds off) | fluorescence at 455 nm, continuous less than pulsed ([3]; 30 mW/cm^2 continuous versus pulsed 3 seconds on/3 seconds off) | corneal fluorescence at first 100 μm versus next 100 μm ([4]; 0.1, 0.25 or 0.5% Riboflavin, 3 or 30 mW/cm^2, dose 5.4 J/cm^2) | corneal fluorescence relative to non-cross-linked samples ([4]; first 100 μm, 0.1% Riboflavin solution, 3 mW/cm^2, dose 5.4 J/cm^2) | biomechanical stiffness (FIG. 5C) ([5]; 0.25% Riboflavin, 3 mW/cm^2 continuous wave) | biomechanical stiffness (FIG. 5B) ([5]; sample 2: 0.1% Riboflavin, 30 mW/cm^2 pulsed, 4.5 second exposure cycles, 3 seconds off) | biomechanical stiffness (FIG. 5A) ([5]; sample 5: 30 mW/cm^2 continuous wave, total 35.1 J/cm^2 dose) | amount of cross-linking by fluorescence of digested flaps at 450 nm (FIG. 7A) [6]
1 | about 0.340 |  |  |  |  |  |  |  |  | Cc1cc2c(cc1C)N(C[C@H](O)[C@H](O)[C@H](O)CO)c1[nH]c(=O)[nH]c(=O)c1N2 [RfH2, Leuco-Deuteroflavin] | highest | higher |  |  |  |  |  |  |  |  | 
2 |  | slightly lower biomechanical stiffness | lower biomechanical stiffness | in descending order | highest biomechanical stiffness | dissimilar biomechanical stiffness | highest biomechanical stiffness | higher than both the samples 6 and 7 | about 0.543 | Cc1cc2nc3c(=O)[nH]c(=O)nc-3n(C[C@H](O)[C@H](O)[C@H](O)CO)c2cc1C [Riboflavin] |  |  | about 12000 counts/s | about 20,000 counts/s | about 40% | greater at first 100 μm than at the next 100 μm | highest corneal fluorescence | lowest biomechanical stiffness out of samples 1 and 3-7 | slightly lower biomechanical stiffness than samples 3 or 1 | higher than that for samples 6, 7, 3, 4, and 1; also recorded: lower than that for sample 2 | greatly increases the amount of cross-linking
